Assay results: patent US7015251B1 (priority 1999, dated 2006)
≈ marks a conversion by molar mass, not a printed value. Entries after “also recorded” stand apart in the source; their conditions may differ.

Experiments:
Jurkat cells [1] = assay: Jurkat cell proliferation assay (3H-thymidine uptake); type: cell-based, human
Method: Cell Proliferation Assays. […] DNA synthesis was assessed by the addition of ^3H-thymidine (1 μCi/well; specific activity—6.7 Ci/mmol; ICN Pharmaceuticals, Costa Mesa, Calif.) uptake 24 hours before the end of the 72 hour growth period at a final concentration of 1 μCi/well.

Jurkat cells [2] = assay: Jurkat cell cycle analysis (propidium iodide, FACScan); type: cell-based, human; settings: 24 hours
Text: Cell Cycle Analysis. […] Pie graphs (FIGS. 3A–F) were generated and normalized to a control value of 100%.

Jurkat cells [3] = assay: Jurkat histologic evaluation (Wright's stain); type: cell-based, human; settings: 48 hours
Method: Histologic Evaluation. […] Wright's stains of all slides were performed using an automated Hemastainer (Geometric Data, Wayne, Pa.). Slides were analyzed microscopically, photographed (Olympus BH 2, Tokyo, Japan) at 100, 200, and 400 power, and evaluated for morphological changes.

Jurkat cells [4] = assay: Jurkat TUNEL assay for apoptosis; type: cell-based, human; settings: 48 hours
Method: Terminal deoxynucleotide transferase (TdT) mediated deoxyuridine triphosphate (dUTP) nick-end labeling (TUNEL) assay. […] At 24 and 48 hours, DNA strand breaks were labeled with TUNEL assay (In Situ Cell Death Detection Kit, Fluorescein; Boehringer Mannheim, Indianapolis, Ind.), and cellular apoptosis was measured by flow cytometry.

Tu138 cells [5] = assay: Tu138 MTT dye assay (cytotoxicity, isobologram); settings: for cytotoxicity: 3 days of culture; for cell cytotoxicity (time kinetics): ceramide 25 μg/ml alone; for ED50 (cytotoxicity, MTT): n=6, 3 days
Method: Tu138, an adherent squamous carcinoma cell line of the head and neck was established at U T M D Anderson Cancer Center, Houston, Tex. (20, 21) and was generously provided by Dr. Gary Clayman's laboratory. Tu138 cells were maintained routinely in T-75 culture flasks (Falcon, Inc., NJ) at a plating cell density of 0.1×10^6 per 75 sq. cm. surface area in complete D-MEM/F-12 culture medium (10 ml) containing 10% fetal bovine serum (FBS, Atlanta Biologicals, Ga.), 2 mM glutamine (Gibco, NY), 50 units/mL penicillin, […] streptomycin (Gibco, NY) and 20 mM Hepes (Sigma, MO) in a 5% CO2 atmosphere at 37° C. Tu138 cells were replenished with fresh complete culture medium twice weekly until confluence.
At the indicated times (24 to 72 hours), cells were subjected to (a) tetrazolium-based dye assay for cell survival measurements, (b) flow cytometry analysis for cell cycle progression and (c) measurements of apoptosis by TUNEL assay.
(22). At the end of an incubation period of 4 hours, culture plates were centrifuged at 300 g for 2 minutes.

Tu138 cells [6] = assay: Tu138 cell cycle measurements (flow cytometry); type: cell-based, human; settings: for effect on cell cycle progression: ceramide 25 μg/ml alone, 24 or 48 hours, n=4; for cells blocked in the G2-M phase: paclitaxel 600 ng/ml
Method: (§1) At the end of either 24 or 48 hours, cells were trypsinized and washed with the culture medium. For cell cycle measurements, cells were mixed with 0.5 ml of 0.1% propidium iodide solution (New Concepts Scientific Ltd. ON) containing 0.1% sodium citrate and 0.1% NP-40. RNase (1 μg) was added to each sample and cells were incubated at 4° C. for 30 minutes. At least 1×10^4 cells were acquired on a precalibrated FACScan (Beckton Dickinson, Calif.) flow cytometer. For precalibration “DNA QC” (Becton Dickinson, Calif.) kit was utilized. The acquired cells were then subjected to cell cycle analysis by the use of “Modfit LT” software (Beckton Dickinson, Calif.). For measurements of apoptosis, In Situ Cell Death Detection Kit (Boehringer Manheim, Ind.) followed by flow cytometry analysis was utilized.

Tu138 cells [7] = assay: Tu138 TUNEL assay for apoptosis; type: cell-based, human
Method: as §1

Tu138 cells [8] = settings: for Tumor Size (mm^2) at Week 5 / reduction in tumor growth / tumor size vs vehicle control: paclitaxel 120 μg and/or ceramide 500 μg in cremophore; for Tumor Size (mm^2) at Week 5: s.c. near tumor thrice weekly from day 4 for 5 weeks; for reduction in tumor growth / tumor size vs vehicle control: s.c., week 5 (Table 3)
Text: The vehicle control consisted of cremophore only at the concentration utilized in the combination treatment.
In a separate experiment nude mice were implanted with 1−2×10^6 Tu138 cells. […] The vehicle control consisted of cremophore only at the concentration utilized in the combination treatment.

HT29 = assay: MTT dye assay at 72 hrs, HT29; type: cell-based, human
Jurkat = assay: MTT dye assay at 72 hrs, Jurkat; type: cell-based, human
LnCap = assay: MTT dye assay at 72 hrs, LnCap; type: cell-based, human
PC-3 = assay: MTT dye assay at 72 hrs, PC-3; type: cell-based, human
RWP-2 = assay: MTT dye assay at 72 hrs, RWP-2; type: cell-based, human
TU138 = assay: MTT dye assay at 72 hrs, TU138; type: cell-based, human
tumor cell lines = assay: MTT dye assay at 72 hrs, tumor cell lines tested (ID50); type: cell-based, human
Tu138 tumor = Tu138 tumor in nude mice, intraperitoneal treatment; settings: paclitaxel 120 μg and/or ceramide 500 μg, within 4 weeks of administration
Tu138 cell-tumor = assay: Tu138 tumor in nude mice, subcutaneous treatment near tumor site
Method: To corroborate in vitro findings Tu138 cells were planted subcutaneously on nude mice. […] Tumor size was measured once a week. All groups of mice were sacrificed on day 45 and excised tumors were weighed.

MCF-7 = MCF-7 cell cycle progression; type: cell-based, human
recurrent breast cancer = settings: single agent, cited from earlier work
[9] = Homo sapiens, read-out: % Growth Inhibition
[10] = n=25, 250 mg/m^2, 24 hour infusion every 21 day interval

## CCCCCCCCCCCCC/C=C/[C@@H](O)[C@H](CO)NC(=O)CCCCC [Ceramide, N-hexanoyl-D-sphingosine]
Jurkat cells [1]; Ceramide 25 μg/ml, Experiment 1
  [3H]thymidine uptake counts ± SD: 378245 ± 28689 cpm
Jurkat cells [1]; Ceramide 25 μg/ml, Experiment 2
  [3H]thymidine uptake counts ± SD: 415740 ± 6168 cpm
Jurkat cells [1]; Ceramide 25 μg/ml, Experiment 3
  [3H]thymidine uptake counts ± SD: 301993 ± 67599 cpm
Jurkat cells [1]; Ceramide 25 μg/ml, Experiment 4
  [3H]thymidine uptake counts ± SD: 259230 ± 54914 cpm
Jurkat cells [1]; Ceramide 25 μg/ml, Experiment 5
  [3H]thymidine uptake counts ± SD: 189052 ± 3534 cpm
Jurkat cells [1]; ceramide added alone, all test concentrations (0 to 50 μg/ml), 10% fetal bovine serum
  growth inhibition: ≤ 6%
Jurkat cells [1]; low serum (1%)
  ceramide-mediated growth inhibition: > 99%
Jurkat cells [2]; ceramide treatment, 10% fetal bovine serum
  cell cycle pattern: did not differ from the non-ceramide-exposed control
Jurkat cells [3]; ceramide 25 μg/ml, 10% serum
  morphological changes (Wright's stain): morphologically indistinguishable from control cells
Jurkat cells [4]; 12.5 μg/ml of ceramide
  apoptosis (TUNEL): 0.41%
Jurkat cells [4]; 25 μg/ml of ceramide
  apoptosis (TUNEL): 0.33%
Tu138 cells [5]; ceramide 12.5 μg/ml
  cytotoxicity: 19%
Tu138 cells [5]; 24 hours
  cell cytotoxicity (time kinetics): 32.7%
Tu138 cells [5]; 72 hours
  cell cytotoxicity (time kinetics): 54.5%
Tu138 cells [5]; ceramide 25 μg/ml
  cytotoxicity: 46%
Tu138 cells [5]; ceramide alone
  ED50 (cytotoxicity, MTT): 22 ± 5 µg/mL (≈ 55.3 µM)
Tu138 cells [6]
  effect on cell cycle progression: did not significantly affect either G0–G1 or G2-M phase
Tu138 cells [6]; listed as ceramide
  effect on cell cycle progression: no significant effect
Tu138 cells [7]; ceramide 25 μg/ml alone, 24 hours
  apoptosis (TUNEL): 9.7%
Tu138 cells [7]; ceramide 25 μg/ml alone, 48 hours
  apoptosis (TUNEL): 13.6%
Tu138 cells [8]; ceramide delivered in cremophore, nude mice
  toxicity: no toxicity
Tu138 cells [8]
  Tumor Size (mm^2) at Week 5: 109.5 ± 14.1 mm^2
  reduction in tumor growth / tumor size vs vehicle control: 44.7%
HT29; CERAMIDE (25 μg/nl) alone, HT29
  % Growth Inhibition: 61%
Jurkat; CERAMIDE (25 μg/nl) alone
  % Growth Inhibition: 8%
LnCap; CERAMIDE (25 μg/nl) alone, LnCap
  % Growth Inhibition: 25%
PC-3; CERAMIDE (25 μg/nl) alone
  % Growth Inhibition: 8%
RWP-2; CERAMIDE (25 μg/nl) alone, RWP-2
  % Growth Inhibition: 6%
TU138; CERAMIDE (25 μg/nl) alone, TU138
  % Growth Inhibition: 28%
Tumor cell lines; ceramide, approximately
  calculated ID50 (cytotoxicity): 30.0 to 40.0 µg/mL
Tu138 tumor
  tumor size / tumor burden reduction in comparison to control (vehicle): no significant effect
Tu138 cell-tumor; ceramide alone 500 μg/0.2 mL s.c. thrice weekly, excised day 45
  tumor weight: substantial reduction in tumor weight
Tu138 cell-tumor; ceramide alone 500 μg/0.2 mL s.c. thrice weekly, week 5
  tumor size: slight decrease in tumor size

## CC(=O)O[C@H]1C(=O)[C@@]2(C)[C@H]([C@H](OC(=O)c3ccccc3)[C@]3(O)C[C@H](OC(=O)[C@H](O)[C@@H](NC(=O)c4ccccc4)c4ccccc4)C(C)=C1C3(C)C)[C@]1(OC(C)=O)CO[C@@H]1C[C@@H]2O [Paclitaxel]
Jurkat cells [1]; 10% fetal bovine serum
  concentrations that effectively blocked thymidine incorporation: higher than 0.06 ng/ml
Jurkat cells [1]; Homo sapiens, Jurkat, read-out: growth inhibition
  inhibition at 0.0006 µg/mL: 56.5%
Jurkat cells [1]; Taxol 0.6 ng/ml, Experiment 1
  [3H]thymidine uptake counts ± SD: 52675 ± 7478 cpm
Jurkat cells [1]; Taxol 0.6 ng/ml, Experiment 2
  [3H]thymidine uptake counts ± SD: 95563 ± 6427 cpm
Jurkat cells [1]; Taxol 0.6 ng/ml, Experiment 3
  [3H]thymidine uptake counts ± SD: 22771 ± 5113 cpm
Jurkat cells [1]; Taxol 0.6 ng/ml, Experiment 4
  [3H]thymidine uptake counts ± SD: 89621 ± 17579 cpm
Jurkat cells [1]; Taxol 0.6 ng/ml, Experiment 5
  [3H]thymidine uptake counts ± SD: 98694 ± 32045 cpm
Jurkat cells [1]; Taxol 6.0 ng/ml, Experiment 1
  [3H]thymidine uptake counts ± SD: 16592 ± 782 cpm
Jurkat cells [1]; Taxol 6.0 ng/ml, Experiment 2
  [3H]thymidine uptake counts ± SD: 33443 ± 17976 cpm
Jurkat cells [1]; Taxol 6.0 ng/ml, Experiment 3
  [3H]thymidine uptake counts ± SD: 13400 ± 849 cpm
Jurkat cells [1]; Taxol 6.0 ng/ml, Experiment 4
  [3H]thymidine uptake counts ± SD: 35466 ± 7576 cpm
Jurkat cells [1]; Taxol 6.0 ng/ml, Experiment 5
  [3H]thymidine uptake counts ± SD: 10295 ± 353 cpm
Jurkat cells [1]; paclitaxel alone, n=5, 3-day exposure assay
  ED50 (cell growth inhibition): approximately 0.5 ng/ml
Jurkat cells [1]; paclitaxel alone, serum 10% to 1%
  effect of serum level on growth inhibition: unaffected by variation of serum levels
Jurkat cells [2]; 0.6 and 6.0 ng/ml paclitaxel each
  hypodiploid (sub-G1) cell population: approximately 25%
Jurkat cells [2]; paclitaxel 0.6 ng/ml alone
  cell population in S phase: 31.8%
  decrease of cells in the G0–G1 phase: 13.3%
  total cell population in the G2-M phase: 22.2%
Jurkat cells [2]; paclitaxel 6.0 ng/ml alone
  cell population in S phase: 27%
  decrease of cells in the G0–G1 phase: 23.5%
  total cell population in the G2-M phase: 38.2%
Jurkat cells [2]; paclitaxel 0.6 or 6.0 ng/ml alone
  increase in the G2-M cell population vs untreated control: 2–3 fold
Jurkat cells [3]; 0.6 and 6.0 ng/ml of paclitaxel alone
  morphological changes (Wright's stain): apoptotic bodies were noted amid cell shrinkage and nuclear and membrane blebbing
Jurkat cells [4]; 0.6 ng/ml of paclitaxel
  apoptosis (TUNEL): 19.6%
Tu138 cells [5]; paclitaxel alone
  ED50 (cytotoxicity, MTT): 1.92 ± 1.2 µg/mL (≈ 2.25 µM)
Tu138 cells [6]; 24 hours
  cells blocked in the G2-M phase: 61.8%
Tu138 cells [6]; 48 hours
  cells blocked in the G2-M phase: 58.2%
Tu138 cells [7]; paclitaxel 600 ng/ml alone, 24 hours
  apoptosis (TUNEL): 18.4%
Tu138 cells [7]; paclitaxel 600 ng/ml alone, 48 hours
  apoptosis (TUNEL): 54.8%
Tu138 cells [8]
  Tumor Size (mm^2) at Week 5: 176.0 ± 90.3 mm^2
  reduction in tumor growth / tumor size vs vehicle control: 11.1%
HT29; Homo sapiens, HT-29, read-out: % Growth Inhibition
  inhibition at 0.6 µg/mL: 16%
Jurkat; [9]
  inhibition at 0.6 µg/mL: 55%
LnCap; Homo sapiens, LNCaP, read-out: % Growth Inhibition
  inhibition at 0.6 µg/mL: 13%
PC-3; [9]
  inhibition at 0.6 µg/mL: 16%
RWP-2; [9]
  inhibition at 0.6 µg/mL: 2%
TU138; [9]
  inhibition at 0.6 µg/mL: 10%
Tumor cell lines; paclitaxel, most tumor cell lines tested
  ID50 (cytotoxicity): 6.0 to 60.0 ng/mL
MCF-7; higher than ID50 paclitaxel concentrations
  number of cells in G2/M phase: 38%
MCF-7; lower than ID50 paclitaxel concentrations (0.6–6.0 ng/ml)
  cells blocked in G2/M phase of the cell cycle: greater than 55%
Recurrent breast cancer; 250 mg/m^2
  dose related toxicity: severe
Recurrent breast cancer; [10]
  complete response rate: 12%
  partial response rate: 44%
Tu138 tumor
  tumor size / tumor burden reduction in comparison to control (vehicle): 29%
Tu138 cell-tumor; paclitaxel alone 120 μg/0.1 mL s.c. thrice weekly
  tumor growth compared with control: grew aggressively in control and paclitaxel treated mice almost equally; also recorded: equivalent growth
